Results from US20140017223A1, “Pharmaceutical Compositions Comprising A Pancreatic Enzyme Preparation With Viral Infectivity Reduced Below A Significant Level And Methods Of Preparing And Using The Same” (Aptalis Pharma Canada Inc., priority 2010, published 2014).

Legend:
Assay type in all cases: cell-based, porcine parvovirus (PPV)
PPV [1] = test: Inactivation of spiked PPV in PEP by BPL, PPV titered by chloroform/PEG method (Example 3)
Excerpt: U.S. Patent Publication No. 2009/0226414, incorporated by reference herein, provides a reproducible and efficient method for detecting an infectious non-enveloped virus, such as PPV, in an enzyme preparation (e.g., a pancreatic enzyme preparation) by treating the preparation prior to determining its viral infectivity. This method preserves the infectious non-enveloped virus while substantially eliminating the toxic enzyme materials from the PEP samples.
The steps of this method include:
(a) extracting a sample of the preparation at least two times with chloroform to produce a clarified sample with an upper phase and a lower phase;
(b) precipitating an aliquot of the upper phase from step (a) with polyethylene glycol (PEG);
(c) suspending the product from step (b) in a buffer;
(d) precipitating the product from step (c) with PEG;
(e) suspending the product from step (d) in a solution;
(f) removing excess PEG and fine particles from product (e) by chloroform, this allows (i) in step (e) the suspending in a 10-times smaller volume to increase the overall sensitivity up to 10-fold; and (ii) removal of the remaining interfering materials from the least diluted steps of the most toxic samples; and
(g) detecting the presence of or measuring the amount of infectious virus in the solution.
Pancrelipase powders from 2 different lots were each dissolved in 100 mM Tris, pH=8.3, at a concentration of 100 mg/ml. Two ml non-purified PPV viral stock (prepared using standard protocols (Arella et al., Physicichemical properties, production, and purification of parvoviruses. 1990, In Tijssen, P. (ed.), CRC handbook of parvoviruses. Boca Raton, Fla.: CRC Press, 11-30)) were added to 38 ml of the pancrelipase solution. The virus was mixed with the PEP using slow shaking at room temperature for one day. Aliquots were taken from the PPV-spiked pancrelipase stocks and each was incubated with different concentrations of BPL (available from Sigma-Aldrich, St. Louis, Mo.) (except the control) for 48 hours at room temperature (20° C.). […] Determination of the FFID50 was performed using the fluorescence assay as described in the PPV FFID-infectivity assay of U.S. Patent Publication No. 2009/0226414.
The experiment described in Example 1 was repeated except PEG-purified PPV was used for the infectivity assay as described in U.S. Patent Publication No. 2009/0226414.

PPV [2] = test: Inactivation of PPV by 0.8% (v/v) BPL at 4° C. (Example 6); conditions: 0.8% BPL (4 h) at 4° C.
Protocol: Samples prepared as in Example 1 were treated for four hours with 0.8% (v/v) BPL at 4° C.

PPV [3] = test: Inactivation of spiked PPV in pancrelipase (PEP) by BPL, PPV titered by dilution method (Example 1); conditions: 48 h, 20° C.; for Detected PPV Titer: 0*=below detection limit of 10^3 FFID50/g
Protocol: For example, two preparations can be tested for PPV or another virus on one 96-well plate, with the positive controls incubated on another parallel plate. For PPV the samples can be serially diluted (for example, 1:4 in each step for a total of 8 dilutions) in cell culture medium prior to application and incubated with cell cultures for at least 5 days at 37° C. in 5% CO2. After sample removal and the fixation of the cells by paraformaldehyde, the presence of PPV (or other) virus infection is monitored in each well by an anti-PPV antibody using a standard immunofluorescent assay. The number of wells that contain positively stained cells are recorded in a table. Fluorescence Focus Infectious Doses (FFID50) are calculated according to the Karber formula: […]
All data are recalculated for 1-gram dry PEP, e.g., pancrelipase, sample after the consideration of processed sample volumes and dilutions. In certain embodiments, the assay is repeated several times using six parallel wells to quantify the level of infectious viruses.
Pancrelipase powders from 2 different lots were each dissolved in 100 mM Tris, pH=8.3, at a concentration of 100 mg/ml. Two ml non-purified PPV viral stock (prepared using standard protocols (Arella et al., Physicichemical properties, production, and purification of parvoviruses. 1990, In Tijssen, P. (ed.), CRC handbook of parvoviruses. Boca Raton, Fla.: CRC Press, 11-30)) were added to 38 ml of the pancrelipase solution. The virus was mixed with the PEP using slow shaking at room temperature for one day. Aliquots were taken from the PPV-spiked pancrelipase stocks and each was incubated with different concentrations of BPL (available from Sigma-Aldrich, St. Louis, Mo.) (except the control) for 48 hours at room temperature (20° C.). The level of viral inactivation was measured by the titration of PPV infectivity using serial dilutions of 1,000 times or more since the titer of spiked virus was high. Determination of the FFID50 was performed using the fluorescence assay as described in the PPV FFID-infectivity assay of U.S. Patent Publication No. 2009/0226414.

SMILES: O=C1CCO1 [BPL, Beta-propiolactone]
- PPV Titer reduction (PPV [1]; PEP #1, 0.04% (v/v) BPL): 10 FFID50/g
- PPV Titer reduction (PPV [1]; PEP #1, 0.10% (v/v) BPL): 10 FFID50/g
- PPV Titer reduction (PPV [1]; PEP #1, 0.25% (v/v) BPL): 10^5 FFID50/g
- PPV Titer reduction (PPV [1]; PEP #2, 0.04% (v/v) BPL): 10 FFID50/g
- PPV Titer reduction (PPV [1]; PEP #2, 0.10% (v/v) BPL): 10^2 FFID50/g
- PPV Titer reduction (PPV [1]; PEP #2, 0.25% (v/v) BPL): 10^5 FFID50/g
- PPV Titer reduction (PPV [1]; PEP #3, 0.04% (v/v) BPL): 10 FFID50/g
- PPV Titer reduction (PPV [1]; PEP #3, 0.10% (v/v) BPL): 10^2 FFID50/g
- PPV Titer reduction (PPV [1]; PEP #3, 0.25% (v/v) BPL): 10^5 FFID50/g
- PPV Titer reduction (PPV [1]; PEP #4, 0.04% (v/v) BPL): 10 FFID50/g
- PPV Titer reduction (PPV [1]; PEP #4, 0.10% (v/v) BPL): 10^2 FFID50/g
- PPV Titer reduction (PPV [1]; PEP #4, 0.25% (v/v) BPL): 10^4 FFID50/g
- Log Reduction (PPV [2]; media Mixture water + IPA): 4.9 Log
- Sample infectivity after treatment with BPL (PPV [2]; media Mixture water + IPA): 5.2 FFID50/g log
- Log Reduction (PPV [2]; media Water): 5.2 Log
- Sample infectivity after treatment with BPL (PPV [2]; media Water): 5.0 FFID50/g log
- PPV Titer reduction (PPV [3]; PEP #1, 0.1% (v/v) BPL): 2.37 × 10^3 FFID50/g
- Detected PPV Titer (PPV [3]; PEP #1, 0.1% (v/v) BPL): 4.22 × 10^4 FFID50/g
- PPV Titer reduction (PPV [3]; PEP #1, 0.2% (v/v) BPL): >10^5 FFID50/g
- Detected PPV Titer (PPV [3]; PEP #1, 0.2% (v/v) BPL): < 0* FFID50/g
- PPV Titer reduction (PPV [3]; PEP #1, 0.4% (v/v) BPL): >10^5 FFID50/g
- Detected PPV Titer (PPV [3]; PEP #1, 0.4% (v/v) BPL): < 0* FFID50/g
- PPV Titer reduction (PPV [3]; PEP #1, 0.8% (v/v) BPL): >10^5 FFID50/g
- Detected PPV Titer (PPV [3]; PEP #1, 0.8% (v/v) BPL): < 0* FFID50/g
- PPV Titer reduction (PPV [3]; PEP #2, 0.1% (v/v) BPL): 2.37 × 10^3 FFID50/g
- Detected PPV Titer (PPV [3]; PEP #2, 0.1% (v/v) BPL): 4.22 × 10^4 FFID50/g
- PPV Titer reduction (PPV [3]; PEP #2, 0.2% (v/v) BPL): >10^5 FFID50/g
- Detected PPV Titer (PPV [3]; PEP #2, 0.2% (v/v) BPL): < 0* FFID50/g
- PPV Titer reduction (PPV [3]; PEP #2, 0.4% (v/v) BPL): >10^5 FFID50/g
- Detected PPV Titer (PPV [3]; PEP #2, 0.4% (v/v) BPL): < 0* FFID50/g
- PPV Titer reduction (PPV [3]; PEP #2, 0.8% (v/v) BPL): >10^5 FFID50/g
- Detected PPV Titer (PPV [3]; PEP #2, 0.8% (v/v) BPL): < 0* FFID50/g
- PPV Titer reduction (PPV [3]; PEP #3, 0.1% (v/v) BPL): 4.22 × 10^3 FFID50/g
- Detected PPV Titer (PPV [3]; PEP #3, 0.1% (v/v) BPL): 5.62 × 10^4 FFID50/g
- PPV Titer reduction (PPV [3]; PEP #3, 0.2% (v/v) BPL): >10^5 FFID50/g
- Detected PPV Titer (PPV [3]; PEP #3, 0.2% (v/v) BPL): < 0* FFID50/g
- PPV Titer reduction (PPV [3]; PEP #3, 0.4% (v/v) BPL): >10^5 FFID50/g
- Detected PPV Titer (PPV [3]; PEP #3, 0.4% (v/v) BPL): < 0* FFID50/g
- PPV Titer reduction (PPV [3]; PEP #3, 0.8% (v/v) BPL): >10^5 FFID50/g
- Detected PPV Titer (PPV [3]; PEP #3, 0.8% (v/v) BPL): < 0* FFID50/g
- PPV Titer reduction (PPV [3]; PEP #4, 0.1% (v/v) BPL): 1.33 × 10^8 FFID50/g
- Detected PPV Titer (PPV [3]; PEP #4, 0.1% (v/v) BPL): < 0* FFID50/g
- PPV Titer reduction (PPV [3]; PEP #4, 0.2% (v/v) BPL): >10^5 FFID50/g
- Detected PPV Titer (PPV [3]; PEP #4, 0.2% (v/v) BPL): < 0* FFID50/g
- PPV Titer reduction (PPV [3]; PEP #4, 0.4% (v/v) BPL): >10^5 FFID50/g
- Detected PPV Titer (PPV [3]; PEP #4, 0.4% (v/v) BPL): < 0* FFID50/g
- PPV Titer reduction (PPV [3]; PEP #4, 0.8% (v/v) BPL): >10^5 FFID50/g
- Detected PPV Titer (PPV [3]; PEP #4, 0.8% (v/v) BPL): < 0* FFID50/g
